Results published in ChEMBL document CHEMBL1149094, “3-(4-Aroyl-1-methyl-1H-pyrrol-2-yl)-N-hydroxy-2-propenamides as a new class of synthetic histone deacetylase inhibitors. 3. Discovery of novel lead compounds through structure-based drug design and docking studies” (J Med Chem, 2004).

How the values were obtained:
[1] = target: T1, Histone deacetylase 1 (Mus musculus, UniProt O09106); experiment: Inhibition of mouse Histone deacetylase 1 (HDAC1) receptor
[2] = target: T2, Histone deacetylase HD2 (Zea mays, UniProt Q94F81); experiment: Inhibition of maize histone deacetylase 2
T2 sequence (Q94F81 whole entry): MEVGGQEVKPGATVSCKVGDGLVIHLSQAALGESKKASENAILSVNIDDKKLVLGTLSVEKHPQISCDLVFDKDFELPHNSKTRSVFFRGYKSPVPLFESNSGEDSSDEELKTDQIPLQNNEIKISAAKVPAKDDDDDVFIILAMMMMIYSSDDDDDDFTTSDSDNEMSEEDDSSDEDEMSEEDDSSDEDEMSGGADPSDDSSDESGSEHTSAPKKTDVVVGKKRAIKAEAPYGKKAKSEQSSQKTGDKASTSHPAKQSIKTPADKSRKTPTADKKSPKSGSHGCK

[3] = target: T1, Histone deacetylase 1; experiment: Inhibition of mouse HDAC1
[4] = target: T3, Histone deacetylase HD2 (Zea mays) (UniProt Q94F81); experiment: Percent inhibition of maize histone deacetylase 2 receptor at a dose of 30 uM
T3 sequence (whole entry): T2 sequence (Q94F81 whole entry)

[5] = target: T2, Histone deacetylase HD2; experiment: Inhibition of maize Histone deacetylase 2

T1 sequence (O09106 whole entry): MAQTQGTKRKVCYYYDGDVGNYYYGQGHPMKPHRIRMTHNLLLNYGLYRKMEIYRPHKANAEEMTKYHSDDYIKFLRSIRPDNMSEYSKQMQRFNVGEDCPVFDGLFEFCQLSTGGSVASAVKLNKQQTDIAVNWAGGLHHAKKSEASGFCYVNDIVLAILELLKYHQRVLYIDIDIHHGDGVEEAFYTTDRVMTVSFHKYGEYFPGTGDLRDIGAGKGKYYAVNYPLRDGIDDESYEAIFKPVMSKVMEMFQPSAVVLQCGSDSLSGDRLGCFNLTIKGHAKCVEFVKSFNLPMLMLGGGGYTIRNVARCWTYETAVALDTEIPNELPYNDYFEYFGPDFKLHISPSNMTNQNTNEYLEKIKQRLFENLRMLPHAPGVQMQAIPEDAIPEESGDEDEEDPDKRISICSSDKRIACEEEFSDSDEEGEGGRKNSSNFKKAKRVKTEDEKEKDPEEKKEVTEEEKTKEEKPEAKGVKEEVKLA

Cn1c(/C=C/C(=O)NO)ccc1C(=O)c1ccccc1
IC50 [1]: 0.25 µM
IC50 [2]: 0.28 µM
IC50 [3]: 0.229 µM
inhibition [4]: 95%
IC50 [5]: 0.251 µM

Cn1cc(/C=C/C(=O)NO)cc1C(=O)c1ccccc1
IC50 [1]: 0.78 µM
IC50 [2]: 0.05 µM
IC50 [3]: 0.776 µM
inhibition [4]: 97%
IC50 [5]: 0.0501 µM
